Measurements as given in ChEMBL document CHEMBL3885881, “DrugMatrix”.

Organism: Rattus norvegicus
Experiment: DrugMatrix - Regimen: Daily Repeat
Assay type: toxicity, organism-based, Sprague-Dawley
Design: regimen Daily Repeat, gender Male, age 6-8 weeks
Conditions: in vivo, po, route oral GAVAGE, vehicle 100 % WATER; for ABSOLUTE BASOPHIL / ABSOLUTE EOSINOPHIL / ABSOLUTE LYMPHOCYTE / ABSOLUTE MONOCYTE / ABSOLUTE SEGMENTED NEUTROPHIL / BASOPHIL / EOSINOPHIL / ERYTHROCYTE COUNT / HEMATOCRIT / HEMOGLOBIN / LEUKOCYTE COUNT / LYMPHOCYTE / MEAN CORPUSCULAR HEMOGLOBIN / MEAN CORPUSCULAR HEMOGLOBIN CONCENTRATION / MEAN CORPUSCULAR VOLUME / MONOCYTE / NEUTROPHIL / NUCLEATED RED BLOOD CELLS / PLATELET COUNT: tissue Blood; for ALANINE AMINOTRANSFERASE / ALBUMIN / ALKALINE PHOSPHATASE / ASPARTATE AMINOTRANSFERASE / BLOOD UREA NITROGEN / CARBON DIOXIDE / CHLORIDE / CHOLESTEROL / CREATINE PHOSPHOKINASE / CREATININE / GLUCOSE / LACTATE DEHYDROGENASE / LIPASE / PHOSPHORUS / POTASSIUM / SODIUM / TOTAL BILIRUBIN / TOTAL PROTEIN / URIC ACID: tissue Plasma
[1] = 175 mg/kg, 120 h, dose level High, time 5 day
[2] = […], 72 h, dose 5.8 mg/Kg, dose level Low, time 3 day
[3] = […], 120 h, dose 5.8 mg/Kg, dose level Low, time 5 day

O=c1[nH]c(=O)n(C2CCCO2)cc1F (centres undefined) [TEGAFUR]
ABSOLUTE BASOPHIL [1]: 0 CELLS/uL | ABSOLUTE EOSINOPHIL [1]: 47 CELLS/uL | ABSOLUTE LYMPHOCYTE [1]: 11945 CELLS/uL | ABSOLUTE MONOCYTE [1]: 125.33 CELLS/uL | ABSOLUTE SEGMENTED NEUTROPHIL [1]: 416 CELLS/uL | BASOPHIL [1]: 0% | EOSINOPHIL [1]: 0.33% | ERYTHROCYTE COUNT [1]: 6.13 x10E6/uL | HEMATOCRIT [1]: 37.33% | HEMOGLOBIN [1]: 14.9 G/DL | LEUKOCYTE COUNT [1]: 12.53 x10E3/uL | LYMPHOCYTE [1]: 95.33% | MEAN CORPUSCULAR HEMOGLOBIN [1]: 24.33 pg | MEAN CORPUSCULAR HEMOGLOBIN CONCENTRATION [1]: 39.9 G/DL | MEAN CORPUSCULAR VOLUME [1]: 60.9 fL | MONOCYTE [1]: 1% | NEUTROPHIL [1]: 3.33% | NUCLEATED RED BLOOD CELLS [1]: 0 /100WBC | PLATELET COUNT [1]: 1252.33 x10E3/uL | ALANINE AMINOTRANSFERASE [1]: 40 u/L | ALBUMIN [1]: 4.43 G/DL | ALKALINE PHOSPHATASE [1]: 333 u/L | ASPARTATE AMINOTRANSFERASE [1]: 113 u/L | BLOOD UREA NITROGEN [1]: 19.67 mg/dL | CARBON DIOXIDE [1]: 26 mmol/L | CHLORIDE [1]: 106 MEQ/L | CHOLESTEROL [1]: 80.67 mg/dL | CREATINE PHOSPHOKINASE [1]: 419.33 u/L | CREATININE [1]: 0.24 mg/dL | GLUCOSE [1]: 146.33 mg/dL | LACTATE DEHYDROGENASE [1]: 797.67 u/L | LIPASE [1]: 9.33 u/L | PHOSPHORUS [1]: 10.2 mg/dL | POTASSIUM [1]: 5.48 MEQ/L | SODIUM [1]: 149.83 MEQ/L | TOTAL BILIRUBIN [1]: 0.17 mg/dL | TOTAL PROTEIN [1]: 6.13 G/DL | URIC ACID [1]: 1.43 mg/dL | ABSOLUTE BASOPHIL [2]: 0 CELLS/uL | ABSOLUTE EOSINOPHIL [2]: 50 CELLS/uL | ABSOLUTE LYMPHOCYTE [2]: 13948.67 CELLS/uL | ABSOLUTE MONOCYTE [2]: 166.67 CELLS/uL | ABSOLUTE SEGMENTED NEUTROPHIL [2]: 1434.67 CELLS/uL | BASOPHIL [2]: 0% | EOSINOPHIL [2]: 0.33% | ERYTHROCYTE COUNT [2]: 5.51 x10E6/uL | HEMATOCRIT [2]: 34.4% | HEMOGLOBIN [2]: 13.43 G/DL | LEUKOCYTE COUNT [2]: 15.6 x10E3/uL | LYMPHOCYTE [2]: 89.67% | MEAN CORPUSCULAR HEMOGLOBIN [2]: 24.37 pg | MEAN CORPUSCULAR HEMOGLOBIN CONCENTRATION [2]: 39.03 G/DL | MEAN CORPUSCULAR VOLUME [2]: 62.43 fL | MONOCYTE [2]: 1% | NEUTROPHIL [2]: 9% | NUCLEATED RED BLOOD CELLS [2]: 0 /100WBC | PLATELET COUNT [2]: 1387 x10E3/uL | ALANINE AMINOTRANSFERASE [2]: 47.33 u/L | ALBUMIN [2]: 4.23 G/DL | ALKALINE PHOSPHATASE [2]: 325.33 u/L | ASPARTATE AMINOTRANSFERASE [2]: 100.33 u/L | BLOOD UREA NITROGEN [2]: 15.33 mg/dL | CARBON DIOXIDE [2]: 28.33 mmol/L | CHLORIDE [2]: 100.33 MEQ/L | CHOLESTEROL [2]: 86 mg/dL | CREATINE PHOSPHOKINASE [2]: 626 u/L | CREATININE [2]: 0.22 mg/dL | GLUCOSE [2]: 138.67 mg/dL | LACTATE DEHYDROGENASE [2]: 764.67 u/L | LIPASE [2]: 9.67 u/L | PHOSPHORUS [2]: 12.43 mg/dL | POTASSIUM [2]: 6.48 MEQ/L | SODIUM [2]: 143.37 MEQ/L | TOTAL BILIRUBIN [2]: 0.17 mg/dL | TOTAL PROTEIN [2]: 5.97 G/DL | URIC ACID [2]: 1.57 mg/dL | ABSOLUTE BASOPHIL [3]: 0 CELLS/uL | ABSOLUTE EOSINOPHIL [3]: 53.67 CELLS/uL | ABSOLUTE LYMPHOCYTE [3]: 12194.67 CELLS/uL | ABSOLUTE MONOCYTE [3]: 43 CELLS/uL | ABSOLUTE SEGMENTED NEUTROPHIL [3]: 1808.67 CELLS/uL | BASOPHIL [3]: 0% | EOSINOPHIL [3]: 0.33% | ERYTHROCYTE COUNT [3]: 5.38 x10E6/uL | HEMATOCRIT [3]: 32.9% | HEMOGLOBIN [3]: 13.1 G/DL | LEUKOCYTE COUNT [3]: 14.1 x10E3/uL | LYMPHOCYTE [3]: 86.67% | MEAN CORPUSCULAR HEMOGLOBIN [3]: 24.33 pg | MEAN CORPUSCULAR HEMOGLOBIN CONCENTRATION [3]: 39.83 G/DL | MEAN CORPUSCULAR VOLUME [3]: 61.1 fL | MONOCYTE [3]: 0.33% | NEUTROPHIL [3]: 12.67% | NUCLEATED RED BLOOD CELLS [3]: 0.33 /100WBC | PLATELET COUNT [3]: 1303.67 x10E3/uL | ALANINE AMINOTRANSFERASE [3]: 51 u/L | ALBUMIN [3]: 4.13 G/DL | ALKALINE PHOSPHATASE [3]: 305.67 u/L | ASPARTATE AMINOTRANSFERASE [3]: 93.67 u/L | BLOOD UREA NITROGEN [3]: 16 mg/dL | CARBON DIOXIDE [3]: 24.33 mmol/L | CHLORIDE [3]: 102.67 MEQ/L | CHOLESTEROL [3]: 77.33 mg/dL | CREATINE PHOSPHOKINASE [3]: 365 u/L | CREATININE [3]: 0.22 mg/dL | GLUCOSE [3]: 140 mg/dL | LACTATE DEHYDROGENASE [3]: 424.33 u/L | LIPASE [3]: 9.33 u/L | PHOSPHORUS [3]: 11.73 mg/dL | POTASSIUM [3]: 6.27 MEQ/L | SODIUM [3]: 142.73 MEQ/L | TOTAL BILIRUBIN [3]: 0.27 mg/dL | TOTAL PROTEIN [3]: 5.97 G/DL | URIC ACID [3]: 1.6 mg/dL
